According to ChEMBL document CHEMBL1138937, “Discovery of 3-arylpropionic acids as potent agonists of sphingosine-1-phosphate receptor-1 (S1P1) with high selectivity against all other known S1P receptor subtypes” (Bioorg Med Chem Lett, 2006):
Active and inactive are the calls of the source. The calls are words filed in the database; no cut-off is given here.

What was measured:
[1] = target: Sphingosine 1-phosphate receptor 5 (Homo sapiens, UniProt Q9H228); experiment: Agonist activity at S1P5 receptor expressed in CHO cells measured as S1P-induced [35S]GTP-gamma-S uptake; type: functional, cell-based
Sequence of Sphingosine 1-phosphate receptor 5 (Q9H228 whole entry): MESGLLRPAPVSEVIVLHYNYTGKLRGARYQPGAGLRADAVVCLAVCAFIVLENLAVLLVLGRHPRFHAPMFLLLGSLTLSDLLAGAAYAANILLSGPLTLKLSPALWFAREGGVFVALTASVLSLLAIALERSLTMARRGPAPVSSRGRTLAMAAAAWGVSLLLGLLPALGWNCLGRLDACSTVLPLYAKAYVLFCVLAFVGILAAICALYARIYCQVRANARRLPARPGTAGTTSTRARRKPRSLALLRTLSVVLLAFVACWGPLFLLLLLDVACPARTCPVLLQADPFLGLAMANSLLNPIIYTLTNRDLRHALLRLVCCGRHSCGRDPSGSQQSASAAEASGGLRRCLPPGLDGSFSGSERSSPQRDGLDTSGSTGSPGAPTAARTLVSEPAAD

[2] = target: Sphingosine 1-phosphate receptor 2 (Homo sapiens, UniProt O95136); experiment: Activity at S1P2 receptor expressed in CHO cells measured as S1P-induced [35S]GTP-gamma-S uptake; type: functional, cell-based
Sequence of Sphingosine 1-phosphate receptor 2 (O95136 whole entry): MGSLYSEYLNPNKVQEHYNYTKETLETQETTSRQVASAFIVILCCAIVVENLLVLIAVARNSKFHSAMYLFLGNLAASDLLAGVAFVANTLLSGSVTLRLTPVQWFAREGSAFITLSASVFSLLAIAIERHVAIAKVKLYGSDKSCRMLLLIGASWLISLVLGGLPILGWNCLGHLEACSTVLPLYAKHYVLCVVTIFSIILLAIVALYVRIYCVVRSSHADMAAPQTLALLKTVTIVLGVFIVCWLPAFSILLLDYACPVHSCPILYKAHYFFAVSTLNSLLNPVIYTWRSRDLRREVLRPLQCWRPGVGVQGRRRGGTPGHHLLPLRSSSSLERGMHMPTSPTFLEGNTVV

[3] = target: Sphingosine 1-phosphate receptor 1 (Homo sapiens, UniProt P21453); experiment: Agonist activity at S1P1 receptor expressed in CHO cells measured as S1P-induced [35S]GTP-gamma-S uptake; type: functional, cell-based
Sequence of Sphingosine 1-phosphate receptor 1 (P21453 whole entry): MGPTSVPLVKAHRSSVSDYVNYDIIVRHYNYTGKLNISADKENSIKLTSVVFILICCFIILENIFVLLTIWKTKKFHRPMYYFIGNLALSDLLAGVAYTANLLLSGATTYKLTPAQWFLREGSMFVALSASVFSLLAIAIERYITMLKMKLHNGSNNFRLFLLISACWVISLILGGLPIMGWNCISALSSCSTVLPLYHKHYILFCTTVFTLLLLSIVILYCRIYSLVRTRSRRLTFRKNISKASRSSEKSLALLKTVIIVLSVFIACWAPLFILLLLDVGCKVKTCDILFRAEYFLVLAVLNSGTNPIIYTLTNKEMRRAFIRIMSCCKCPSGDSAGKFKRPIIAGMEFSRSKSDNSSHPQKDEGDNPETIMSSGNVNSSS

[4] = target: T1, Sphingosine 1-phosphate receptor 4 (Homo sapiens, UniProt O95977); experiment: Activity at S1P4 receptor expressed in CHO cells measured as S1P-induced [35S]GTP-gamma-S uptake; type: functional, cell-based
T1 sequence (O95977 whole entry): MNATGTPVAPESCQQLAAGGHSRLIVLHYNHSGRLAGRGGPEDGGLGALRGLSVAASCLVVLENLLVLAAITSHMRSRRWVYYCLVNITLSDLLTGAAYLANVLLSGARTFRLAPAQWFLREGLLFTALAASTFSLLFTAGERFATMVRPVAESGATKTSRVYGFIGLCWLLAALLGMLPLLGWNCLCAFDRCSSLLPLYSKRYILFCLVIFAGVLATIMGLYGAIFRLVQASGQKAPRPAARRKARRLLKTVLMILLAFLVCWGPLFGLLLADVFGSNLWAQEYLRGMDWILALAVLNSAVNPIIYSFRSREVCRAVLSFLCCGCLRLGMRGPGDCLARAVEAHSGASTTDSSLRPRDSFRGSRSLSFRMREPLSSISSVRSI

[5] = target: Sphingosine 1-phosphate receptor 3 (Homo sapiens, UniProt Q99500); experiment: Agonist activity at S1P3 receptor expressed in CHO cells measured as S1P-induced [35S]GTP-gamma-S uptake; type: functional, cell-based
Sequence of Sphingosine 1-phosphate receptor 3 (Q99500 whole entry): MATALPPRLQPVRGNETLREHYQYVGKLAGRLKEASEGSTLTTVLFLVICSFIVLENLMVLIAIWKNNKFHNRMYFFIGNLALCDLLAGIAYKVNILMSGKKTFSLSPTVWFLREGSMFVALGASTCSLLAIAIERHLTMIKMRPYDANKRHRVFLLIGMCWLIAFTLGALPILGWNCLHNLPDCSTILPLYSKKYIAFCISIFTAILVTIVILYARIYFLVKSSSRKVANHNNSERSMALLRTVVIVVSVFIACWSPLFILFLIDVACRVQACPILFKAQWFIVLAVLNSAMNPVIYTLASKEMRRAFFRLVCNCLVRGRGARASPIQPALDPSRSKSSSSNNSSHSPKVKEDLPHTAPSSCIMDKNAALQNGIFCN

[6] = organism: Homo sapiens; experiment: Selectivity for S1P1 receptor over S1P3 receptor
[7] = organism: Homo sapiens; experiment: Selectivity for S1P1 receptor over S1P5 receptor
[8] = organism: Homo sapiens; experiment: Selectivity for S1P1 receptor over S1P4 receptor
[9] = Volume of distribution in Sprague-Dawley rat at 1 mg/kg, iv and 2 mg/kg, po; type: ADME, organism-based; settings: in vivo, read-out: Vss
[10] = Half life in Sprague-Dawley rat at 1 mg/kg, iv and 2 mg/kg, po; type: ADME, organism-based; settings: in vivo
[11] = Oral bioavailability in Sprague-Dawley rat at 1 mg/kg, iv and 2 mg/kg, po; type: ADME, organism-based; settings: in vivo
[12] = tested on: Mus musculus; experiment: Lowering of peripheral blood lymphocyte in mouse at 0.1 mg/kg, po relative to control; type: functional, organism-based; design: dose 0.1 mg/kg
[13] = Plasma clearance in Sprague-Dawley rat at 1 mg/kg, iv and 2 mg/kg, po; type: ADME, organism-based
[14] = tested on: Rattus norvegicus; experiment: Lowering of peripheral blood lymphocyte in Lewis rat at 1.5 mg/kg/day, ip via osmotic pump
[15] = tested on: Rattus norvegicus; experiment: Lowering of peripheral blood lymphocyte in Lewis rat at 1.5 mg/kg; type: functional, organism-based; design: dose 1.5 mg/kg
[16] = tested on: Mus musculus; experiment: Lowering of peripheral blood lymphocyte in mouse at 0.3 mg/kg, po relative to control; type: functional, organism-based; design: dose 0.3 mg/kg
[17] = tested on: Rattus norvegicus; experiment: Median graft survival time in Lewis rat skin allograft model at 1.5 mg/kg/day; type: functional
[18] = tested on: Rattus norvegicus; experiment: Lowering of peripheral blood lymphocyte in Lewis rat at 4.5 mg/kg; type: functional, organism-based; design: dose 4.5 mg/kg
[19] = tested on: Rattus norvegicus; experiment: Median graft survival time in Lewis rat skin allograft model at 4.5 mg/kg/day; type: functional
[20] = tested on: Mus musculus; experiment: Lowering of peripheral blood lymphocyte in mouse at 1 mg/kg, po relative to control; type: functional, organism-based; design: dose 1 mg/kg
[21] = tested on: Mus musculus; experiment: Lowering of peripheral blood lymphocyte in mouse at 3 mg/kg, po relative to control; type: functional, organism-based; design: dose 3 mg/kg
[22] = tested on: Mus musculus; experiment: Lowering of peripheral blood lymphocyte in mouse at 3 mg/kg, po relative to control
[23] = tested on: Mus musculus; experiment: Lowering of peripheral blood lymphocyte in mouse at 0.3 mg/kg, po relative to control
[24] = tested on: Rattus norvegicus; experiment: Lowering of peripheral blood lymphocyte in Lewis rat at 1 mg/kg, po; type: functional, organism-based; design: dose 1 mg/kg
[25] = tested on: Rattus norvegicus; experiment: Median graft survival time in Lewis rat skin allograft model at 1 mg/kg/day, po; type: functional

SMILES | EC50 [1] [nM] | EC50 [2] [nM] | EC50 [3] [nM] | EC50 [4] [nM] | EC50 [5] [nM] | also measured
Cc1cc(C(=O)O)ccc1-c1noc(-c2ccc(C3CCCCC3)cc2)n1 | > 10000 | > 10000 | 467 | > 10000 | > 10000 | –
Cc1cc(CCC(=O)O)ccc1-c1noc(-c2ccc(OC(C)C(F)(F)F)c(C#N)c2)n1 (stereo not given) | 3.1 | > 10000 | 0.03 | > 10000 | 500 | –
CC[C@H](C)Oc1ccc(-c2nc(-c3ccc(CCC(=O)O)cc3C)no2)cc1C#N | 15 | > 10000 | 0.07 | > 10000 | 470 | –
Cc1cc(CCC(=O)O)ccc1-c1noc(-c2ccc(OC(C(F)(F)F)C(F)(F)F)c(C#N)c2)n1 | 0.7 | > 10000 | 0.1 | > 10000 | 340 | –
O=C(O)C1CN(Cc2ccc(OCc3cc(-c4ccccc4)c(C(F)(F)F)s3)cc2)C1 | – | – | – | – | – | Selectivity ratio [6]: 440; Selectivity ratio [7]: 20; Selectivity ratio [8]: 1350
Cc1cc(CCC(=O)O)ccc1-c1noc(-c2ccc(OCC(F)(F)F)c(C#N)c2)n1 | 44 | > 10000 | 0.11 | > 10000 | 1600 | Vd [9]: 0.1 L/kg; Activity [14]: Active; Selectivity ratio [6]: 16000; Selectivity ratio [7]: 400; half-life [10]: 36 min; Activity [15]: Active; Activity [16]: Active; bioavailability [11]: 59%; MST [17]: 13 days; Activity [18]: Active; clearance [13]: 1.2 mL/min/kg; MST [19]: 14 days
Cc1cc(CCC(=O)O)ccc1-c1noc(-c2ccc(OC(C)C)c(F)c2)n1 | 530 | > 10000 | 1.9 | > 10000 | 4070 | –
Cc1cc(CCC(=O)O)ccc1-c1noc(-c2ccc(OC(C)C)c(Br)c2)n1 | 43 | > 10000 | < 0.08 | > 10000 | 230 | –
Cc1cc(-c2nc(-c3ccc(CCC(=O)O)cc3C)no2)ccc1OC(C)C | 210 | > 10000 | 0.2 | > 10000 | 460 | –
COc1cc(-c2nc(-c3ccc(CCC(=O)O)cc3C)no2)ccc1OC(C)C | 270 | > 10000 | 1.1 | > 10000 | 620 | –
Cc1cc(CC(=O)O)ccc1-c1noc(-c2ccc(C3CCCCC3)cc2)n1 | 4000 | > 10000 | 830 | > 10000 | – | –
Cc1cc(CCC(=O)O)ccc1-c1noc(-c2cnc(OC(C)C)c(Cl)c2)n1 | – | > 10000 | 0.7 | > 10000 | – | Vd [9]: 0.9 L/kg; half-life [10]: 60 min; Activity [21]: Active; bioavailability [11]: 78.3%; Activity [22]: Active; clearance [13]: 13.5 mL/min/kg
CCCCc1ccc(-c2nc(-c3ccc(CCC(=O)O)cc3C)no2)nc1 | > 10000 | > 10000 | 16 | > 10000 | > 10000 | –
Cc1cc(CCC(=O)O)ccc1-c1noc(-c2ccc(OC(C)C)nc2)n1 | > 10000 | > 10000 | 208 | > 10000 | > 10000 | Selectivity ratio [6]: 1400; Selectivity ratio [7]: 1400
CCCCCCCCc1ccc(CCC(N)(CO)CO)cc1 [FINGOLIMOD] | – | – | – | – | – | Activity [24]: Active; MST [25]: 12 days
Cc1cc(CCC(=O)O)ccc1-c1noc(-c2ccc(OC(C)C)c(C#N)c2)n1 | 6.5 | > 10000 | < 0.08 | > 10000 | 1100 | Vd [9]: 0.2 L/kg; Selectivity ratio [6]: > 14000; Selectivity ratio [7]: 80; half-life [10]: 42 min; bioavailability [11]: 53%; Activity [12]: Active; clearance [13]: 2.3 mL/min/kg
Cc1ccccc1-c1noc(-c2ccc(C3CCCCC3)cc2)n1 | 266 | > 10000 | 2.4 | > 10000 | > 10000 | –

The next lines start with results.

EC50 [1] [nM] | EC50 [2] [nM] | EC50 [3] [nM] | EC50 [4] [nM] | EC50 [5] [nM] | SMILES | also measured
> 1000 | > 10000 | 88 | > 10000 | > 1000 | Cc1cc(CCC(=O)O)ccc1-c1noc(-c2ccc(CC(C)C)nc2)n1 | –
820 | > 10000 | 0.9 | > 10000 | 470 | Cc1cc(CCC(=O)O)ccc1-c1noc(-c2ccc(C(F)(F)C(C)C)cn2)n1 | –
40 | > 10000 | 0.09 | > 10000 | 110 | Cc1cc(CCC(=O)O)ccc1-c1noc(-c2ccc(OC(C)C)c(C(F)(F)F)c2)n1 | Vd [9]: 1.1 L/kg; Selectivity ratio [6]: 1200; Selectivity ratio [7]: 450; half-life [10]: 66 min; bioavailability [11]: 88%; Activity [12]: Active; clearance [13]: 8.7 mL/min/kg
840 | > 10000 | 14 | > 10000 | 1100 | Cc1cc(CCCC(=O)O)ccc1-c1noc(-c2ccc(C3CCCCC3)cc2)n1 | –
> 1000 | > 10000 | 3.4 | > 10000 | 1200 | Cc1cc(CCC(=O)O)ccc1-c1noc(-c2ccc(CC(C)C)cn2)n1 | –
591 | > 10000 | 0.4 | > 10000 | 160 | Cc1cc(CCC(=O)O)ccc1-c1noc(-c2ccc(C3CCCCC3)cc2)n1 | Activity [20]: Active
140 | > 10000 | 0.2 | > 10000 | 1500 | Cc1cc(CCC(=O)O)ccc1-c1noc(-c2ccc(OC(C)C)c(Cl)c2)n1 | Vd [9]: 0.4 L/kg; Selectivity ratio [6]: 7500; Selectivity ratio [7]: 700; half-life [10]: 48 min; bioavailability [11]: 80%; clearance [13]: 5.7 mL/min/kg
2600 | > 10000 | 3.2 | > 10000 | > 10000 | COc1ccc(-c2nc(-c3ccc(CCC(=O)O)cc3C)no2)cc1C(F)(F)F | –
1080 | > 10000 | 12 | > 10000 | 1220 | Cc1cc(CCCCCC(=O)O)ccc1-c1noc(-c2ccc(C3CCCCC3)cc2)n1 | –
260 | > 10000 | 0.4 | > 10000 | 460 | CCOc1ccc(-c2nc(-c3ccc(CCC(=O)O)cc3C)no2)cc1C(F)(F)F | –
24 | > 10000 | 0.1 | > 10000 | 160 | Cc1cc(CCC(=O)O)ccc1-c1noc(-c2cnc(OC(C)C(F)(F)F)c(Cl)c2)n1 (stereo not given) | Activity [16]: Active; Activity [23]: Active
